Laboratory results reported in publication PMC11509018, “Evaluation of the Role of Tanshinone I in an In Vitro System of Charcot-Marie-Tooth Disease Type 2N” (International Journal of Molecular Sciences, 2024).

Target: T1, AlaRS R326W binding to Nrp1 (Homo sapiens, UniProt P49588, R326W)
T1 construct: expressed in transfected cells
T1 sequence (P49588 1-968 R326W): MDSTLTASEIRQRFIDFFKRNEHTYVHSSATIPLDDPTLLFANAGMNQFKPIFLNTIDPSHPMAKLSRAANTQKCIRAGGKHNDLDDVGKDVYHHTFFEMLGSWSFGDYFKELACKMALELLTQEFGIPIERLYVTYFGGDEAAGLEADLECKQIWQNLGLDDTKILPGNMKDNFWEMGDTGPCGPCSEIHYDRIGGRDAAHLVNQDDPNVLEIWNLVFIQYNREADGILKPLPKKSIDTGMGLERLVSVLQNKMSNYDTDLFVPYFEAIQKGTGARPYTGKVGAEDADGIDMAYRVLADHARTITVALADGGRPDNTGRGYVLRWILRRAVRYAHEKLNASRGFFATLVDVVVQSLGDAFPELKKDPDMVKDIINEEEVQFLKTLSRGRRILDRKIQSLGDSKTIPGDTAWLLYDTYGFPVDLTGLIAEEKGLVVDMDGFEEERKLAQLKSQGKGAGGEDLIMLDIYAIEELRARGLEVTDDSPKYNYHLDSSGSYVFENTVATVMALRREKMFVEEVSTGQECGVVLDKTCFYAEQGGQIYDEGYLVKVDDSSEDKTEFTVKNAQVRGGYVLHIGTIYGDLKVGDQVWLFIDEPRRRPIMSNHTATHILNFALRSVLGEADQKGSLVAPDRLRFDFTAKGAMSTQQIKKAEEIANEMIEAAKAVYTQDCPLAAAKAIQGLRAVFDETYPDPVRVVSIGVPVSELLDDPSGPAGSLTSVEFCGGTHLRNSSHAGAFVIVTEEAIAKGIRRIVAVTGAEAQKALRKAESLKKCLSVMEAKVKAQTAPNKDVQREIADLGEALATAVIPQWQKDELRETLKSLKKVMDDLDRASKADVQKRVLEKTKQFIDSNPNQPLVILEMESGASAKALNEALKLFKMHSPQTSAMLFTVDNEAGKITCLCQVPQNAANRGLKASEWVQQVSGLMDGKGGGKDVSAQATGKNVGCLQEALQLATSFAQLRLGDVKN
Test: Co-IP of HA-AlaRS mutant with Nrp1 in transfected cells
Assay type: cell-based
Details: 20 µM Tanshinone I for 24 h, ImageJ, average of three repeats
Description: To further investigate whether Tanshinone I-induced conformational changes in AlaRS CMT mutants affect their interaction with Nrp1, Co-IP experiments were performed in cells treated with Tanshinone I. By comparing Co-IP results obtained before and after treatment, we assessed the influence of the drug on the binding strength and mode between the AlaRS CMT mutants and Nrp1. […] To confirm the direct effect of Tanshinone I on the interaction between AlaRS CMT mutants and Nrp1, pull-down experiments were performed. […] Given that the interaction between AlaRS mutants and Nrp1 is associated with disease progression in CMT, the ability of Tanshinone I to disrupt this binding highlights its potential to intervene in the pathogenic mechanisms of these diseases.
Figure 7 The impact of Tanshinone I on the interaction between AlaRS mutants and Nrp1. (A) Co-IP assays were conducted to assess the binding between HA-AlaRS mutants and Nrp1, both with and without treatment with 20 µM Tanshinone I for 24 h. […] (C) Pull down assay was performed to detect the binding between AlaRS mutants and GST-Nrp1 b1 with or without 20 µM Tanshinone I. (D) Relative quantification statistics of the AlaRS mutants pulled down from the GST pull down experiments after Tanshinone I treatment were performed using ImageJ. (E) The cell viability of 293T and NSC34 cells treated with different concentrations of Tanshinone I was assessed using the CCK-8 assay over a 24 h period. TEXT PRINTED IN THE PICTURE: (B) Tanshinone I: Mean density band (N71Y): 0.60; Mean density band (G102R): 0.53; Mean density band (R326W): 0.50; Mean density band (R329H): 0.50; Mean density band (E337K): 0.62 | (D) Tanshinone I: Mean density band (N71Y): 0.82; Mean density band (G102R): 0.76; Mean density band (R326W): 0.84; Mean density band (R329H): 0.84; Mean density band (E337K): 0.90
Total protein was extracted from cells using RIPA buffer (50 mM Tris-HCl pH 7.4, 150 mM NaCl, 1% NP40, 1 mM EDTA) supplemented with a protease and phosphatase inhibitor cocktail (Roche, Basel, Switzerland). After SDS-PAGE, the protein on the gel was transferred to a PVDF membrane (Bio-Rad, Hercules, CA, USA) and then blocked with 5% non-fat dry milk in TBST for 1 h. Then, the membranes were incubated with the indicated primary antibodies and corresponding HRP-conjugated secondary antibodies. Signals were detected using the Bio-Rad ChemiDoc system (Bio-Rad, Shanghai, China). The following antibodies were used: Flag (Ray antibody biotech, Beijing, China, 1:3000), HA (Ray antibody biotech, Beijing, China, 1:3000), and GAPDH (Ray antibody biotech, Beijing, China, 1:5000).
To detect the binding of Nrp1 and AlaRS mutants in cells, whole-cell lysates (500 μg) were treated overnight with 2 μg of anti-Flag antibody in RIPA buffer. Next, Protein A/G agarose beads (#sc-2003, Santa Cruz Biotechnology, Santa Cruz, CA, USA) were applied to the lysates and the samples were further treated for 8–12 h with rotation. Samples were washed three times with RIPA buffer. Subsequently, the immunoprecipitations were resuspended into 2 × SDS-loading buffer. The samples were then boiled for 10 min and detected using Western blot. The experiment was repeated three times.

## Cc1coc2c1C(=O)C(=O)c1c-2ccc2c(C)cccc12 [Tanshinone I]
  Mean density band (R326W), relative quantification of AlaRS mutant immunoprecipitated: 0.50
